From patent US11519025B2, “Cation chelator hot start” (priority 2014, dated 2022)
Where “and” joins values, the source holds several entries; their conditions need not be identical. Identical values can stand only once. Entries after “also recorded” stand apart in the source; their conditions may differ. Counter-ions that a name gives are not always drawn. Like-named read-outs stand apart in the source and are kept apart here.

Legend:
[1] = vendor product list; cited from earlier work
[2] = biological target: DNase, a nuclease isolated from bovine pancreas (Bos taurus, UniProt P00639); details: for DNase enzymatic activity: 100 μM EDTA
Sequence of DNase, a nuclease isolated from bovine pancreas (P00639 23-282): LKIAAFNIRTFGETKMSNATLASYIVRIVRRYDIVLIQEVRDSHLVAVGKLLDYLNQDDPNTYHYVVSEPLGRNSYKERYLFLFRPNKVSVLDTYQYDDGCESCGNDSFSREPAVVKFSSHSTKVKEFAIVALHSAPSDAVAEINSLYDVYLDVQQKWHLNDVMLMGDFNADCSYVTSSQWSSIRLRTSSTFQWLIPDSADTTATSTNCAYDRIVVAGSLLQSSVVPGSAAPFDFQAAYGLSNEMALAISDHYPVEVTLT

[3] = biological target: T1, chemically inactivated Taq DNA polymerase (Thermus aquaticus, UniProt P19821); test: Amplification of bisulphite-treated DNA in the presence of different EGTA concentrations (residual activity of chemically inactivated Taq, Ct and HRM melting curves); type: biochemical
T1 sequence (P19821 whole entry): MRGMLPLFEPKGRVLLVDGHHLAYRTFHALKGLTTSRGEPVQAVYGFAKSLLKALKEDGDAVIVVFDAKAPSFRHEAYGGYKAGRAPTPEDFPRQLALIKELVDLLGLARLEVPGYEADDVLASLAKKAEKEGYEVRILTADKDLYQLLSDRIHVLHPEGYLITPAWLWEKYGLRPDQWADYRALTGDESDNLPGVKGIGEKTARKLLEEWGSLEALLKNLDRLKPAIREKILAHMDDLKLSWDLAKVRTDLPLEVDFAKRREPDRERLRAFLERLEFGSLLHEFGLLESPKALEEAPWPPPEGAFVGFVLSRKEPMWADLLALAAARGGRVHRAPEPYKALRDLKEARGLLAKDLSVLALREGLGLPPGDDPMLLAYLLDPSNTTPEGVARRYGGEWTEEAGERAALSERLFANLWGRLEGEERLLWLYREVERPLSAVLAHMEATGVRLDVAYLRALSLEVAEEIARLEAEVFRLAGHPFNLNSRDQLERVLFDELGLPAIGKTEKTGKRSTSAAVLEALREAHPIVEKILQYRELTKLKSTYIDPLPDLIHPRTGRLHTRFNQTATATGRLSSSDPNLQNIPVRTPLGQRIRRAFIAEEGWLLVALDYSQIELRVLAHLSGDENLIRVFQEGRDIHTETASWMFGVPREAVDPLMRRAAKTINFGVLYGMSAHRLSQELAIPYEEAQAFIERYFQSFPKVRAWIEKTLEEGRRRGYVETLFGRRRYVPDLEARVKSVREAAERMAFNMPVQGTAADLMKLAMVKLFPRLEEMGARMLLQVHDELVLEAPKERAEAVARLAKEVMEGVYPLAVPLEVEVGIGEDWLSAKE
Description: The following experiments employed a system to detect the formation of primer dimers in a PCR reaction mixture using residual active Taq polymerase molecules. Herein, bisulphite-treated DNA is used as a template. As a consequence of the bisulphite treatment, which entails the chemical modification of non-methylated cytosines to uracil), said template only consists of three bases. Since bisulphite treatment only works when using single stranded DNA, the majority of DNA after completion of said bisulphite treatment is single stranded. Primers that are used for amplification of such DNA sequences are characterized by reduced complexity since they only consist of three bases.
Genomic DNA was propagated using the Qiagen REPLI g Midi Kit according to the manufacturer's protocol. Subsequently, 1 μg of said genomic DNA was used in 10 independent reactions wherein the DNA was subjected to bisulphite treatment using the EpiTect Bisulfite Kit followed by purification. The resulting DNA of each reaction was pooled and used in the subsequent amplification reactions.
The final EGTA concentration was between 0.25 and 10 mM.
One set of samples consisting of two reactions was incubated on ice for 120 min, whereas the other set of samples also consisting of two reactions was incubated at room temperature for 120 min. Subsequently both sets of samples were analyzed using the Rotor-Gene Q 5plex HRM System.

[4] = biological target: T1, chemically inactivated Taq DNA polymerase; test: Amplification of bisulphite-treated DNA in the presence of EGTA and different magnesium concentrations; type: biochemical; details: for Ct / Ct Average: 5 mM EGTA
Procedure: In the follow-up experiment said primers and said bisulphite-treated DNA were used in amplification reactions wherein the magnesium dependency was analyzed.
The final concentration of EGTA was 5 mM. The HRM master mix was supplemented with 0.1 0.6 mM magnesium.
Two sets of reactions consisting of duplicates were used in the amplification experiment. One set of samples was incubated on ice for 120 min, whereas the other set of samples was incubated at room temperature for 120 min. Subsequently the samples were analyzed using the Rotor-Gene Q 5plex HRM System.

[5] = pH-dependency of the binding constants of chelating agents; type: physicochemical; details: worked out from known pK values from literature (FIG. 1)
Procedure: Tris buffer is routinely used in PCR buffers. At room temperature the pH of a Tris based PCR buffer is 8.7. […] This means that at 95° C. the pH value is 6.6. In order to select a chelating agent for PCR experiments, the pH-dependency of the binding constants of three different chelating agents, NTA; EDTA and EGTA, was investigated. Known pK values from literature for every chelating agent were used to determine the pH dependency of the complex formation (FIG. 1).

Taq = Taq (Thermus aquaticus, UniProt P19821); test: Endpoint PCR (HugI, 1.2 kb genomic target) with and without EGTA, agarose gel; type: biochemical; details: 5 mM EGTA, 5-10 mM Mg, compared to reactions without EGTA
Sequence of Taq (P19821 whole entry): as above
Procedure: An amplification experiment was performed using a test system that is known to be prone to produce non-specific side products. A genomic DNA sequence of 1.2 kb was the target sequence. Primers HugA and HugB were used.
Reactions with and without EGTA were performed in parallel. In set A, the magnesium concentration was varied in 1 mM steps, start and end point were 5 and 10 mM respectively. In set B, the start point was 0.5 mM and the end point was 4 mM Mg. The setup is described in Table 2.
The amplification program was as follows (Table 3):
35 cycles were performed.

[6] = for pH of Tris based PCR buffer: room temperature
[7] = 0.25 mM EGTA, room temperature 120 min
[8] = 0.5 mM EGTA, room temperature 120 min
[9] = 0.75 mM EGTA, room temperature 120 min
[10] = 1 mM EGTA, room temperature 120 min
[11] = 1.5 mM EGTA, room temperature 120 min
[12] = 2 mM EGTA, room temperature 120 min
[13] = 4 mM EGTA, room temperature 120 min
[14] = 10 mM EGTA, room temperature 120 min
[15] = 0 mM MgCl2 added, on ice 120 min
[16] = 0 mM MgCl2 added, room temperature 120 min
[17] = 0.1 mM MgCl2, room temperature 120 min
[18] = 0.2 mM MgCl2, room temperature 120 min
[19] = 0.3 mM MgCl2, room temperature 120 min
[20] = 0.4 mM MgCl2, room temperature 120 min
[21] = 0.5 mM MgCl2, room temperature 120 min
[22] = 0.6 mM MgCl2, room temperature 120 min

For `NC(=O)CNCCS(=O)(=O)O` [Buffer 1, ACES], the pKa [1] is listed as 6.80.
In the case of `O=S(=O)(O)CCN(CCO)CCO` [Buffer 2, BES], the pKa [1] is given as 7.10.
In the case of `OCC(CO)(CO)NCCCNC(CO)(CO)CO` [Buffer 4, BIS-TRIS propane], the pKa [1] is listed as 6.80.
In the case of `O=S(=O)(O)CCCN1CCN(CCO)CC1` [Buffer 5, EPPS], the pKa [1] is given as 8.00.
In the case of `O=S(=O)(O)CCN1CCN(CCO)CC1` [Buffer 7, HEPES], the pKa [1] is listed as 7.50.
For `O=S(=O)(O)CCN1CCN(CCO)CC1` [Buffer 8, HEPES sodium salt], the pKa [1] is given as 7.50.
In the case of `O=S(=O)(O)CCN1CCN(CCS(=O)(=O)O)CC1` [Buffer 17, PIPES], the pKa [1] is listed as 6.80.
For `O=S(=O)(O)CCCNC(CO)(CO)CO` [Buffer 22, TAPS], the pKa [1] is given as 8.40.
In the case of `O=S(=O)([O-])CCCNC(CO)(CO)CO.[Na+]` [Buffer 23, TAPS sodium salt], the pKa [1] is given as 8.40.
In the case of `O=S(=O)(O)CCNC(CO)(CO)CO` [Buffer 24, TES], the pKa [1] is given as 7.50.
In the case of `O=C(O)CN(CCN(CC(=O)O)CC(=O)O)CC(=O)O` [EDTA, ethylene di amine tetra acetic acid], the DNase enzymatic activity ([2]; 42° C.) is reported as “restoring enzymatic activity” and the DNase enzymatic activity ([2]; on ice, 1, 0.5, 0.1 U DNase) is reported as “largely reduced enzymatic activity”.
With `O=C(O)CN(CCOCCOCCN(CC(=O)O)CC(=O)O)CC(=O)O` [EGTA, ethylene glycol bis(amino ethyl) N, N′-tetra acetic acid] the DNase activity ([2]; 100 μM EGTA, 42° C.) was “largely restored DNase activity”, the “DNA degradation by DNase” value ([2]; 100 μM EGTA, on ice, 0.01, 0.1 and 1 U DNase, 5 and 15 min) was “almost complete inhibition of degradation” and the “DNA degradation by DNase” value ([2]; 100 μM EGTA, on ice, 1 U DNase for 15 min, compared to the sample without EGTA) was “degradation is significantly reduced”. The Ct ([3]; 0.25 mM EGTA, on ice 120 min) was 25.34 and 25.51, the “Ct Average” value ([3]; 0.25 mM EGTA, on ice 120 min) was 25.43 and the Ct [3, 7] was 25.2 and 25.42. The “Ct Average” value [3, 7] was 25.31, the Ct ([3]; 0.5 mM EGTA, on ice 120 min) was 25.53 and 25.62 and the “Ct Average” value ([3]; 0.5 mM EGTA, on ice 120 min) was 25.58. The Ct [3, 8] was 25.55 and 25.47, the “Ct Average” value [3, 8] was 25.51 and the Ct ([3]; 0.75 mM EGTA, on ice 120 min) was 25.78 and 25.88. The “Ct Average” value ([3]; 0.75 mM EGTA, on ice 120 min) was 25.83, the Ct [3, 9] was 25.91 and 25.8 and the “Ct Average” value [3, 9] was 25.86. For the same compound, the Ct ([3]; 1 mM EGTA, on ice 120 min) was 26.59 and 26.61, the “Ct Average” value ([3]; 1 mM EGTA, on ice 120 min) was 26.55 and the Ct [3, 10] was 26.47 and 26.5. The “Ct Average” value [3, 10] was 26.49, the Ct ([3]; 1.5 mM EGTA, on ice 120 min) was 28.17 and 28.21 and the “Ct Average” value ([3]; 1.5 mM EGTA, on ice 120 min) was 28.19. For the same compound, the Ct [3, 11] was 27.76 and 27.88, the “Ct Average” value [3, 11] was 27.82 and the Ct ([3]; 2 mM EGTA, on ice 120 min) was 30.16 and 28.53. The “Ct Average” value ([3]; 2 mM EGTA, on ice 120 min) was 29.35, the Ct [3, 12] was 29.9 and 29.71 and the “Ct Average” value [3, 12] was 29.81. The Ct ([3]; 4 mM EGTA, on ice 120 min) was 38.37 and 38.14, the “Ct Average” value ([3]; 4 mM EGTA, on ice 120 min) was 38.26 and the Ct [3, 13] was 37.32 and 37.02. The “Ct Average” value [3, 13] was 37.13, the Ct [3, 14] was 35.18 and 34 and the “Ct Average” value [3, 14] was 34.59. For the same compound, the success of amplification ([3]; EGTA concentrations exceeded 2 mM) was “successful amplification was prevented”, the “specificity of amplification and effect on Ct” value ([3]; EGTA up to a final concentration of 0.75 mM) was “increase of specificity without affecting the Ct values” and the Ct [4, 15] was 28.74 and 28.89. For the same compound, the “Ct Average” value [4, 15] was 28.82, the Ct [4, 16] was 28.86 and 28.67 and the “Ct Average” value [4, 16] was 28.77. The Ct ([4]; 0.1 mM MgCl2, on ice 120 min) was 27.82 and 27.79, the “Ct Average” value ([4]; 0.1 mM MgCl2, on ice 120 min) was 27.81 and the Ct [4, 17] was 27.53 and 27.71. For the same compound, the “Ct Average” value [4, 17] was 27.62, the Ct ([4]; 0.2 mM MgCl2, on ice 120 min) was 26.85 and 27.39 and the “Ct Average” value ([4]; 0.2 mM MgCl2, on ice 120 min) was 27.12. For the same compound, the Ct [4, 18] was 26.69 and 27.27, the “Ct Average” value [4, 18] was 26.98 and the Ct ([4]; 0.3 mM MgCl2, on ice 120 min) was 26.25 and 26.51. The “Ct Average” value ([4]; 0.3 mM MgCl2, on ice 120 min) was 26.38, the Ct [4, 19] was 26.14 and 26.64 and the “Ct Average” value [4, 19] was 26.39. For the same compound, the Ct ([4]; 0.4 mM MgCl2, on ice 120 min) was 26.01 and 26.14, the “Ct Average” value ([4]; 0.4 mM MgCl2, on ice 120 min) was 26.08 and the Ct [4, 20] was 26.06 and 26.24. The “Ct Average” value [4, 20] was 26.15, the Ct ([4]; 0.5 mM MgCl2, on ice 120 min) was 25.81 and 25.89 and the “Ct Average” value ([4]; 0.5 mM MgCl2, on ice 120 min) was 25.85. The Ct [4, 21] was 25.82 and 25.86, the “Ct Average” value [4, 21] was 25.84 and the Ct ([4]; 0.6 mM MgCl2, on ice 120 min) was 25.61 and 25.56. For the same compound, the “Ct Average” value ([4]; 0.6 mM MgCl2, on ice 120 min) was 25.59, the Ct [4, 22] was 25.55 and 25.49 and the “Ct Average” value [4, 22] was 25.52. For the same compound, the specificity of amplification ([4]; EGTA up to a final concentration of 5 mM) was “increased specificity”, the “correlation between pH value and binding constant” value [5] was “strong correlation between pH value and binding constant” and the “specificity of PCR (side products on agarose gel)” value (Taq) was “more specific as of having less side products; also recorded: results in specific PCR product”.
With `NC(CO)(CO)CO` [Tris] the “pH of Tris buffer” value ([6]; 95° C.) was 6.6, the “pH of Tris based PCR buffer” value [6] was 8.7 and the “pH of Tris based PCR buffer” value ([6]; listed as Tris buffer) was “around 8.7”.
